The text below walks through data of patent US20120214847A1, “2-[1-PHENYL-5-HYDROXY-4a-SUBSTITUTED-HEXAHYDROCYCLOPENTA[F]INDAZOL-5-YL]ETHYL PHENYL DERIVATIVES AS GLUCOCORTICOID RECEPTOR LIGANDS” (Merck Sharp & Dohme Corp., priority 2009, published 2012).

This experiment concerns the target T1, human GR (Homo sapiens, UniProt P04150).
T1 construct: naturally expresses the human GR; endogenous in cells
T1 sequence (P04150 1-777): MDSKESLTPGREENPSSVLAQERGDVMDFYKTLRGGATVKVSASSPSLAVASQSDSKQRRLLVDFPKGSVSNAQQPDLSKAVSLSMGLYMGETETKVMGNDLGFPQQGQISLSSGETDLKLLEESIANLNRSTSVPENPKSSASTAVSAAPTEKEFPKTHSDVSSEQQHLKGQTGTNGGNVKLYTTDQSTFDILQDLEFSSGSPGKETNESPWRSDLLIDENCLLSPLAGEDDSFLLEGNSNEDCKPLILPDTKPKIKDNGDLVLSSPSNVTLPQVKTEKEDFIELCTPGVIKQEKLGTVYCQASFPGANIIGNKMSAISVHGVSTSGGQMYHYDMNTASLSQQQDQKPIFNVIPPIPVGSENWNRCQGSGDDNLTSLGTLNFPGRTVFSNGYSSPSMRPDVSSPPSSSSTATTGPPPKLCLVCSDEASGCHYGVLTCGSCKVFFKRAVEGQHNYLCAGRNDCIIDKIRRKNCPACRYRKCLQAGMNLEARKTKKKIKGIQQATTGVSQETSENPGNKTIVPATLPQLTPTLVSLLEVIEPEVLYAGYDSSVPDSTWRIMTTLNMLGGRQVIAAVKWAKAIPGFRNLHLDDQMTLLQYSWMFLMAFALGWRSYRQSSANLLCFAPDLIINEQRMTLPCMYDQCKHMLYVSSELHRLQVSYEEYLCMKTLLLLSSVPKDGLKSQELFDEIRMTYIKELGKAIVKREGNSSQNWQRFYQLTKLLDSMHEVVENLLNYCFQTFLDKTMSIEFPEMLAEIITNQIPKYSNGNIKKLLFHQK
Nature of the experiment: Trans-activation modulation of glucocorticoid receptor (GRAMMER), MMTV-LUC reporter in A549 cells. Conditions: for Emax: Emax relative to the activity obtained with 300 nM dexamethasone, read-out: Transactivation A549 Cells Grammer Emax (%); for pEC50: IP = inflection point, read-out: Transactivation A549 Cells Grammer IP. The format is cell-based. The text has this: Trans-Activation Modulation of Glucocorticoid Receptor (GRAMMER)
This assay assesses the ability of test compounds to control transcription from the MMTV-LUC reporter gene in lung adenocarcinoma A549 cells or HeLa cells, a human […] cell line that naturally expresses the human GR. The assay measures induction of a modified MMTV LTR/promoter linked to the LUC reporter gene.
The routine transient assay consists of plating 7,000-25,000 cells/well of a white, clear-bottom 96-well plate. Alternatively, 384-well plates can be used at a cell concentration of 10,000/well. The media that the cells are plated in is “exponential growth medium” which consists of phenol red-free RPMI1640 containing 10% FBS, 4 mM L-glutamine, 20 mM HEPES, 10 ug/mL human insulin, and 20 ug/mL gentamicin. Incubator conditions are 37° C. and 5% C02. The transfection is done in batch mode. The cells are trypsinized and counted to the right cell number in the proper amount of fresh media. It is then gently mixed with the FuGene6/DNA 25 mix and plated onto the 96 or 384-well plate, all the wells receive 100 uL or 40 uL, respectively, of medium+lipid/DNA complex then incubated 37° C. overnight. The transfection cocktail consists of serum-free OptiMEM, FuGene6 reagent and DNA. The manufacturer's (Roche Biochemical) protocol for cocktail setup is as follows: The lipid to DNA ratio is approximately 2.5:1 and the incubation time is 20 min at room temperature. Sixteen to 24 h after transfection, the cells are treated with dexamethasone to a final concentration of 10 nM as well as the compound of interest, such that final DMSO (vehicle) concentration is equal to or less than 1%. Each plate also contains samples that are treated with 10 nM dexamethasone alone, which is used as the 100% activity control. The cells are exposed to the compounds for 24 h. After 24 h, the cells are lysed by a Promega cell culture lysis buffer for approximately 30 min and then the luciferase activity in the extracts is assayed in the 96-well format luminometer. In 384 well format, Steady-Glo (Promega) or Steady-Lite (PerkinElmer) can be used by adding an equal volume of reagent to the media present in each well. Activity induced by 10 nM dexamethasone alone is set at 100% activity. Antagonist activity is calculated by determining the decrease in dexamethasone-induced activity in response to compound treatment relative to samples that were treated with dexamethasone alone. Results are expressed as % inhibition of 10 nM dexamethasone activity or as fold of 10 nM dexamethasone activity. This transactivation assay can be performed in an agonist and antagonist mode to identify these different activities.
Activity of test compounds is calculated as the Emax relative to the activity obtained with 300 nM dexamethasone. […] The exemplified tissue selective glucocorticoid receptor modulators of the present invention display agonist activity in this assay of greater than 5% and less than 100%, and maximal transactivation activity less then maximal transrepression activity. The action of compounds is also tested in an antagonist mode (Anti-GRAMMER) in which the cells are treated with medium containing an agonist such as 10 nM DEX and the ability of agents to inhibit the activation by an agonist is measured.

pEC50: −log10 of the molar value. Read-outs that look alike come from different tables or passages of the source.

As for `CC(C)(CO)NC(=O)c1cc(F)cnc1CC[C@]1(O)CCC2=Cc3c(cnn3-c3ccc(F)cc3)C[C@@]21C1CC1` [Example 48, 2-{2-[(4aR,5R)-4a-Cyclopropyl-1-(4-fluorophenyl)-5-hydroxy-1,4,4a,5,6,7-hexahydrocyclopenta[f]indazol-5-yl]ethyl}-5-fluoro-N-(1-hydroxy-2-methylpropan-2-yl)pyridine-3-carboxamide], the Emax (A549, A549 cells) was found to be 50%. Besides, for the setting “A549 cells”, the pEC50 is 7.59.
As to `N#Cc1ccccc1CC[C@]1(O)CCC2=Cc3c(cnn3-c3ccccc3)C[C@@]21C1CC1` [Example 27, 2-{2-[(4aR,5R)-4a-Cyclopropyl-5-hydroxy-1-phenyl-1,4,4a,5,6,7-hexahydrocyclopenta[f]indazol-5-yl]ethyl}benzonitrile], the Emax (A549, A549 cells) came out at 13%. Also, the pEC50 (A549 cells) is 7.64.
Take `CC[C@]12Cc3cnn(-c4ccc(F)cc4)c3C=C1CC[C@@]2(O)CCc1nccc(OC)c1C(F)C(N)=O` (stereo partly drawn) [Example 65, 2-(2-{2-[(4aS,5R)-4a-Ethyl-1-(4-fluorophenyl)-5-hydroxy-1,4,4a,5,6,7-hexahydrocyclopenta[f]indazol-5-yl]ethyl}-4-methoxypyridin-3-yl)-2-fluoroacetamide]: under “A549 cells”, the Emax was 34% and the pEC50 is 6.76.
With `NC(=O)CNC(=O)c1cccnc1CC[C@]1(O)CCC2=Cc3c(cnn3-c3ccc(F)cc3)C[C@@]21C1CC1` [Example 43, N-(2-Amino-2-oxoethyl)-2-{2-[(4aR,5R)-4a-cyclopropyl-1-(4-fluorophenyl)-5-hydroxy-1,4,4a,5,6,7-hexahydrocyclopenta[f]indazol-5-yl]ethyl}pyridine-3-carboxamide], the Emax (A549, A549 cells) was 47%. Under “A549 cells”, the pEC50 is 6.59.
As to `CC[C@]12Cc3cnn(-c4cccnc4)c3C=C1CC[C@@]2(O)CCc1ccccc1C#N` [Example 5, 2-{2-[(4aS,5R)-4a-Ethyl-5-hydroxy-1-(pyridin-3-yl)-1,4,4a,5,6,7-hexahydrocyclopenta[f]indazol-5-yl]ethyl}benzonitrile], the Emax (A549, A549 cells) came to 29%. For the setting “A549 cells”, the pEC50 is 7.33.
The like results for `CC[C@]12Cc3cnn(-c4ccc(F)cc4)c3C=C1CC[C@@]2(O)CCc1ccccc1S(C)(=O)=O` [Example 42, (4aS,5R)-4a-Ethyl-1-(4-fluorophenyl)-5-{2-[2-(methylsulfonyl)phenyl]ethyl}-1,4,4a,5,6,7-hexahydrocyclopenta[f]indazol-5-ol] were, in that order, 34% and 7.80.
In the same order, the values of `OC(C[C@]1(O)CCC2=Cc3c(cnn3-c3ccc(F)cc3)C[C@@]21C1CC1)c1ccc(F)cn1` (single isomer, unassigned) [Example 79a] are 10% and 6.73.
The like results for `CC[C@]12Cc3cnn(-c4ccc(F)cc4)c3C=C1CC[C@@]2(O)CCc1ccccc1S(=O)(=O)CC` [Example 51, (4aS,5R)-4a-Ethyl-5-{2-[2-(ethylsulfonyl)phenyl]ethyl}-1-(4-fluorophenyl)-1,4,4a,5,6,7-hexahydrocyclopenta[f]indazol-5-ol] were, in that order, 28% and 7.04.
Take `CC[C@]12Cc3cnn(-c4ccc(F)cc4)c3C=C1CC[C@@]2(O)CCc1ccc(F)cc1C(N)=O` [Example 8, 2-{2-[(4aS,5R)-4a-Ethyl-1-(4-fluorophenyl)-5-hydroxy-1,4,4a,5,6,7-hexahydrocyclopenta[f]indazol-5-yl]ethyl}-5-fluorobenzamide]: the Emax (A549, A549 cells) was determined as 47%. The pEC50 (A549 cells) is 6.97.
In the same order, the values of `NC(=O)c1ccccc1CC[C@]1(O)CCC2=Cc3c(cnn3-c3ccccc3)C[C@@]21C1CC1` [Example 29, 2-{2-[(4aR,5R)-4a-Cyclopropyl-5-hydroxy-1-phenyl-1,4,4a,5,6,7-hexahydrocyclopenta[f]indazol-5-yl]ethyl}benzamide] are 12% and 7.13.
Take `COc1ccnc(CC[C@]2(O)CCC3=Cc4c(cnn4-c4ccc(F)cc4)C[C@@]32C2CC2)c1C(F)C(N)=O` (stereo partly drawn) [Example 66, 2-(2-{2-[(4aR,5R)-4a-Cyclopropyl-1-(4-fluorophenyl)-5-hydroxy-1,4,4a,5,6,7-hexahydrocyclopenta[f]indazol-5-yl]ethyl}-4-methoxypyridin-3-yl)-2-fluoroacetamide]: for the setting “A549 cells”, the Emax was 45% and the pEC50 was 8.15.
For `CC[C@]12Cc3cnn(-c4ccc(F)cc4)c3C=C1CC[C@@]2(O)CCc1cc(C(F)(F)F)ccn1` [Example 34, (4aS,5R)-4a-Ethyl-1-(4-fluorophenyl)-5-{2-[4-(trifluoromethyl)pyridin-2-yl]ethyl}-1,4,4a,5,6,7-hexahydrocyclopenta[f]indazol-5-ol], the Emax (A549, A549 cells) was 24%. Further, the pEC50 (A549 cells) was 7.04.
For `CC[C@]12Cc3cnn(-c4cccc(F)c4)c3C=C1CC[C@@]2(O)CCc1cccc(F)c1C(N)=O` [Example 12, 2-{2-[(4aS,5R)-4a-Ethyl-1-(3-fluorophenyl)-5-hydroxy-1,4,4a,5,6,7-hexahydrocyclopenta[f]indazol-5-yl]ethyl}-6-fluorobenzamide], the Emax (A549, A549 cells) worked out at 58%. Moreover, for the setting “A549 cells”, the pEC50 was 7.64.
The like results for `CC[C@]12Cc3cnn(-c4ccc(F)cc4)c3C=C1CC[C@@]2(O)CCc1ccccc1CCC(N)=O` [Example 22, 3-(2-{2-[(4aS,5R)-4a-Ethyl-1-(4-fluorophenyl)-5-hydroxy-1,4,4a,5,6,7-hexahydrocyclopenta[f]indazol-5-yl]ethyl}phenyl)propanamide] were, in that order, 28% and 6.91.
As to `CC[C@]12Cc3cnn(-c4ccccc4)c3C=C1CC[C@@]2(O)CCc1ccccc1C(N)=O` [Example 20, 2-{2-[(4aS,5R)-4a-Ethyl-5-hydroxy-1-phenyl-1,4,4a,5,6,7-hexahydrocyclopenta[f]indazol-5-yl]ethyl}benzamide], the Emax (A549, A549 cells) was found to be 51%. The pEC50 (A549 cells) was 7.35.
The like results for `N#Cc1ccnc(CC[C@]2(O)CCC3=Cc4c(cnn4-c4ccc(F)cc4)C[C@@]32C2CC2)c1` [Example 35, 2-{2-[(4aR,5R)-4a-Cyclopropyl-1-(4-fluorophenyl)-5-hydroxy-1,4,4a,5,6,7-hexahydrocyclopenta[f]indazol-5-yl]ethyl}pyridine-4-carbonitrile] were, in that order, 17% and 7.60.
The like results for `COc1cccc(CC[C@]2(O)CCC3=Cc4c(cnn4-c4ccc(F)cc4)C[C@@]32C2CC2)c1C(N)=O` [Example 38, 2-{2-[(4aR,5R)-4a-Cyclopropyl-1-(4-fluorophenyl)-5-hydroxy-1,4,4a,5,6,7-hexahydrocyclopenta[f]indazol-5-yl]ethyl}-6-methoxybenzamide] were, in that order, 11% and 8.00.
